Biological target: T1, Recombinant mouse PD-L1 (Mus musculus, UniProt Q9EP73)
T1 construct: Fc (Fc chimera); purchased R&D Systems 1019-B7-100
Assay: Rescue of mouse splenocyte proliferation in the presence of recombinant PD-L1 (CFSE proliferation assay)
Type: cell-based
Settings: compound at 100 nM; CFSE-labelled mouse splenocytes + anti-CD3/CD28 + PD-L1, 72 h; normalised to stimulated splenocyte proliferation as 100%
Procedure: Example 3: Rescue of Mouse Splenocyte Proliferation in the Presence of Recombinant PD-L1
Recombinant mouse PD-L1 (rm-PDL-1, cat no: 1019-B7-100; R&D Systems) were used as the source of PD-L1.
Mouse splenocytes harvested from 6-8 weeks old C57 BL6 mice; RPMI 1640 (GIBCO, Cat #11875); DMEM with high glucose (GIBCO, Cat #D6429); Fetal Bovine Serum [Hyclone, Cat #SH30071.03]; Penicillin (10000 unit/mL)-Streptomycin(10,000 μg/mL) Liquid (GIBCO, Cat #15140-122); MEM Sodium Pyruvate solution 100 mM (100×), Liquid (GIBCO, Cat #11360); Nonessential amino acid (GIBCO, Cat #11140); L-Glutamine (GIBCO, Cat #25030); Anti-CD3 antibody (eBiosciences—16-0032); Anti-CD28 antibody (eBiosciences—16-0281); ACK lysis buffer (1 mL) (GIBCO, Cat #-A10492); Histopaque (density—1.083 gm/mL) (SIGMA 10831); Trypan blue solution (SIGMA-T8154); 2 mL Norm Ject Luer Lock syringe-(Sigma 2014-12); 40 µm nylon cell strainer (BD FALCON 35230); Hemacytometer (Bright line-SIGMA Z359629); FACS Buffer (PBS/0.1% BSA): Phosphate Buffered Saline (PBS) pH 7.2 (HiMedia TS1006) with 0.1% Bovine Serum Albumin (BSA) (SIGMA A7050) and sodium azide (SIGMA 08591); 5 mM stock solution of CFSE: CFSE stock solution was prepared by diluting lyophilized CFSE with […] of Dimethyl sulfoxide (DMSO C2H6SO, SIGMA-D-5879) and aliquoted in to tubes for further use. Working concentrations were titrated from […] to 1 μM. (eBioscience—650850-85); 0.05% Trypsin and 0.02% EDTA (SIGMA 59417C); 96-well format ELISA plates (Corning CLS3390); BD FACS caliber (E6016); Recombinant mouse B7-H1/PDL1 Fc Chimera, (rm-PD-L1 cat no: 1019-B7-100).
Splenocytes harvested in a 50 mL falcon tube by mashing mouse spleen in a 40 µm cell strainer were further treated with 1 mL ACK lysis buffer for 5 min at room temperature. After washing with 9 mL of RPMI complete media, cells were re-suspended in 3 mL of 1×PBS in a 15 mL tube. 3 mL of Histopaque was added carefully to the bottom of the tube without disturbing overlaying splenocyte suspension. After centrifuging at 800×g for 20 min at room temperature, the opaque layer of splenocytes was collected carefully without disturbing/mixing the layers. Splenocytes were washed twice with cold 1×PBS followed by total cell counting using Trypan Blue exclusion method and used further for cell based assays.
Splenocytes were cultured in RPMI complete media (RPMI+10% fetal bovine serum+1 mM sodium pyruvate+10,000 units/mL penicillin and […] streptomycin) and maintained in a CO2 incubator with 5% CO2 at 37° C.
CFSE is a dye that passively diffuses into cells and binds to intracellular proteins. 1×10^6 cells/mL of harvested splenocytes were treated with […] of CFSE in pre-warmed 1×PBS/0.1% BSA solution for 10 min at 37° C. Excess CFSE was quenched using 5 volumes of ice-cold culture media to the cells and incubated on ice for 5 min. CFSE labelled splenocytes were further given three washes with ice cold complete RPMI media. […] Cells were harvested and washed thrice with ice cold FACS buffer and % proliferation was analysed by flow cytometry with 488 nm excitation and 521 nm emission filters.
Percent splenocyte proliferation was analysed using cell quest FACS program and percent rescue of splenocyte proliferation by compound was estimated after deduction of % background proliferation value and normalising to % stimulated splenocyte proliferation (positive control) as 100%. […]

T1 sequence (Q9EP73 with tags, fused parts or gaps limits assumed): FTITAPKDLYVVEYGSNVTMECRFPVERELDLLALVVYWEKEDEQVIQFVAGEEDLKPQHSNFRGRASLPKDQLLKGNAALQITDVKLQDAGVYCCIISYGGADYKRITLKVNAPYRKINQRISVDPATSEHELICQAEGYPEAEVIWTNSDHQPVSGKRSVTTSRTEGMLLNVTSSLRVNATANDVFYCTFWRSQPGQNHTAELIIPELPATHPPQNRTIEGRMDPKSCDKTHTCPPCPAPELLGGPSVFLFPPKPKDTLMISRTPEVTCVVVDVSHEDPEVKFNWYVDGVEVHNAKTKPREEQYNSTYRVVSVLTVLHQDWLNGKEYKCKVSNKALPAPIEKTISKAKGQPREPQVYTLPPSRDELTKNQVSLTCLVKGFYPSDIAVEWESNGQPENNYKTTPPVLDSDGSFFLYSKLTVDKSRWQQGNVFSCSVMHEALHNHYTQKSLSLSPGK

Compound	Percent rescue of splenocyte proliferation (@100 nM) [%]
CC(O)[C@H](NC(=O)N[C@@H](CC(N)=O)c1nnc(-c2cnccn2)o1)C(=O)O (some centres unmarked) [Compound 13]	63
COc1ccccc1-c1nnc([C@H](CC(N)=O)NC(=O)N[C@@H](CCCCN)C(=O)O)o1 [Compound 11]	60
COc1ccccc1-c1nnc([C@H](CC(N)=O)NC(=O)N[C@@H](CCSC)C(=O)O)o1 [Compound 12]	15
CC(O)[C@H](NC(=O)N[C@H](c1nnc(-c2ccco2)o1)C(C)C)C(=O)O (some centres unmarked) [Compound 7]	28
COc1ccccc1-c1nnc([C@H](CC(N)=O)NC(=O)N[C@H](C(=O)O)C(C)O)o1 (some centres unmarked) [Compound 16]	7

From US20180044305A1, “3-SUBSTITUTED 1,3,4-OXADIAZOLE AND THIADIAZOLE COMPOUNDS AS IMMUNOMODULATORS” (AURIGENE DISCOVERY TECHNOLOGIES LIMITED, priority 2015, published 2018)
